Measured values reported in PubChem BioAssay (NCI).
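Assay format: 96-well plates, 48-hour exposure. The concentration for 50% growth inhibition is given as GI50. The concentration for full growth arrest is given as TGI.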

Columns and labels:
Experiment in all cases: NCI-60 cell line screen, 48 h; in the data active means GI50 below about 0.43 µM; inactive means the rest
OVCAR-4 ovarian = tested on: OVCAR-4 ovarian
HT29 colon = tested on: HT29 colon
UACC-257 melanoma = tested on: UACC-257 melanoma
HOP-62 NSCLC = tested on: HOP-62 NSCLC
LOX IMVI melanoma = tested on: LOX IMVI melanoma
RPMI-8226 leukemia = tested on: RPMI-8226 leukemia
HL-60(TB) leukemia = tested on: HL-60(TB) leukemia
CAKI-1 renal = tested on: CAKI-1 renal
MOLT-4 leukemia = tested on: MOLT-4 leukemia

OCCNc1ncnc2c1ncn2C1OC(CO)C(O)C1O (configuration not stated)
> 100 µM: TGI (OVCAR-4 ovarian) | TGI (HT29 colon) | TGI (UACC-257 melanoma) | TGI (HOP-62 NSCLC) | TGI (LOX IMVI melanoma) | TGI (RPMI-8226 leukemia) | TGI (HL-60(TB) leukemia) | TGI (CAKI-1 renal)

O=C1c2cc3c(cc2[C@@H]2[C@H]1c1ccc([N+](=O)[O-])cc1C(=O)N2CCCCl)OCO3
< 0.01 µM: TGI (LOX IMVI melanoma) | TGI (CAKI-1 renal)
active: GI50 (OVCAR-4 ovarian) 0.151 µM | GI50 (HT29 colon) < 0.01 µM | GI50 (UACC-257 melanoma) < 0.01 µM | GI50 (HOP-62 NSCLC) < 0.01 µM | GI50 (LOX IMVI melanoma) < 0.01 µM | GI50 (RPMI-8226 leukemia) < 0.0171 µM | GI50 (CAKI-1 renal) < 0.01 µM
> 100 µM: TGI (OVCAR-4 ovarian) | TGI (MOLT-4 leukemia) | TGI (HT29 colon) | TGI (RPMI-8226 leukemia)
inactive: GI50 (MOLT-4 leukemia) > 100 µM

COc1ccc(-c2cc(-c3cn[nH]c3-c3ccccn3)ccn2)cc1
inactive: GI50 (OVCAR-4 ovarian) > 25 µM | GI50 (MOLT-4 leukemia) > 25 µM | GI50 (HT29 colon) > 25 µM | GI50 (UACC-257 melanoma) > 25 µM | GI50 (HOP-62 NSCLC) > 25 µM | GI50 (LOX IMVI melanoma) > 25 µM | GI50 (RPMI-8226 leukemia) > 25 µM | GI50 (HL-60(TB) leukemia) > 25 µM | GI50 (CAKI-1 renal) > 25 µM
> 25 µM: TGI (OVCAR-4 ovarian) | TGI (MOLT-4 leukemia) | TGI (HT29 colon) | TGI (UACC-257 melanoma) | TGI (HOP-62 NSCLC) | TGI (LOX IMVI melanoma) | TGI (RPMI-8226 leukemia) | TGI (HL-60(TB) leukemia) | TGI (CAKI-1 renal)

CCOC(=O)C(Cc1ccccc1)NC(=O)OC(C)(C)C (configuration not stated)
> 100 µM: TGI (MOLT-4 leukemia) | TGI (HT29 colon) | TGI (UACC-257 melanoma) | TGI (HOP-62 NSCLC) | TGI (LOX IMVI melanoma) | TGI (HL-60(TB) leukemia)

CCC[CH2][Sn]([CH2]CCC)([O]C(=O)c1cc(OC)c(OC)cc1OC)[O]C(=O)c1cc(OC)c(OC)cc1OC
1.63 µM: TGI (CAKI-1 renal)
4.67 µM: TGI (HT29 colon)
3.34 µM: TGI (LOX IMVI melanoma)
3.31 µM: TGI (UACC-257 melanoma)
6.43 µM: TGI (MOLT-4 leukemia)
inactive: GI50 (OVCAR-4 ovarian) 1.9 µM | GI50 (MOLT-4 leukemia) 0.747 µM | GI50 (HT29 colon) 1.96 µM | GI50 (UACC-257 melanoma) 1.29 µM | GI50 (HOP-62 NSCLC) 2.35 µM | GI50 (LOX IMVI melanoma) 1.04 µM | GI50 (RPMI-8226 leukemia) 0.499 µM
2.96 µM: TGI (RPMI-8226 leukemia)
4.31 µM: TGI (OVCAR-4 ovarian)
active: GI50 (CAKI-1 renal) 0.419 µM
4.41 µM: TGI (HOP-62 NSCLC)

CCC1(C(=O)OC)CCc2c(OC)ccc(OC)c2C1=O (configuration not stated)
> 100 µM: TGI (OVCAR-4 ovarian) | TGI (MOLT-4 leukemia) | TGI (HT29 colon) | TGI (UACC-257 melanoma) | TGI (HOP-62 NSCLC) | TGI (LOX IMVI melanoma) | TGI (RPMI-8226 leukemia) | TGI (HL-60(TB) leukemia) | TGI (CAKI-1 renal)

O=C(CC(=O)Nc1ccccc1O)Nc1ccccc1O
6.01 µM: TGI (HL-60(TB) leukemia)
> 100 µM: TGI (OVCAR-4 ovarian) | TGI (MOLT-4 leukemia) | TGI (HT29 colon) | TGI (HOP-62 NSCLC) | TGI (CAKI-1 renal)
30 µM: TGI (UACC-257 melanoma)
44.2 µM: TGI (RPMI-8226 leukemia)

COc1cc(C(=O)C/C(CCC(=O)Nc2ccc(Cl)cc2Cl)=N/NC(=O)C(N)=O)ccc1O
> 100 µM: TGI (OVCAR-4 ovarian) | TGI (MOLT-4 leukemia) | TGI (HT29 colon) | TGI (UACC-257 melanoma) | TGI (HOP-62 NSCLC) | TGI (RPMI-8226 leukemia) | TGI (HL-60(TB) leukemia) | TGI (CAKI-1 renal)

Nc1ccc2c(c1)CC1c3ccccc3C(C2)c2ccccc21
> 100 µM: TGI (OVCAR-4 ovarian) | TGI (MOLT-4 leukemia) | TGI (HT29 colon) | TGI (UACC-257 melanoma) | TGI (HOP-62 NSCLC) | TGI (LOX IMVI melanoma) | TGI (RPMI-8226 leukemia) | TGI (HL-60(TB) leukemia) | TGI (CAKI-1 renal)

CO[C@H]1C[C@@H]2CC[C@@H](C)[C@@](O)(O2)C(=O)C(=O)N2CCCC[C@H]2C(=O)O[C@H]([C@H](C)C[C@@H]2CC[C@@H](OP(C)(C)=O)[C@H](OC)C2)CC(=O)[C@H](C)/C=C(\C)[C@@H](O)[C@@H](OC)C(=O)[C@H](C)C[C@H](C)/C=C/C=C/C=C/1C
21.5 µM: TGI (HOP-62 NSCLC)
21.3 µM: TGI (OVCAR-4 ovarian)
21.7 µM: TGI (LOX IMVI melanoma)
21.8 µM: TGI (UACC-257 melanoma)
39.8 µM: TGI (HL-60(TB) leukemia)
25.9 µM: TGI (CAKI-1 renal)
24 µM: TGI (HT29 colon)
active: GI50 (HOP-62 NSCLC) < 0.01 µM | GI50 (LOX IMVI melanoma) < 0.01 µM
37.1 µM: TGI (MOLT-4 leukemia)
inactive: GI50 (OVCAR-4 ovarian) 0.698 µM | GI50 (MOLT-4 leukemia) 2.96 µM | GI50 (HT29 colon) 8.07 µM | GI50 (UACC-257 melanoma) 3.21 µM | GI50 (RPMI-8226 leukemia) 8.49 µM | GI50 (HL-60(TB) leukemia) 17.5 µM | GI50 (CAKI-1 renal) 10.8 µM
40.6 µM: TGI (RPMI-8226 leukemia)

CC1=C(C(=O)CC(=O)C(=O)Nc2ccccc2)Sc2ccccc2N1
> 100 µM: TGI (OVCAR-4 ovarian) | TGI (MOLT-4 leukemia) | TGI (HT29 colon) | TGI (UACC-257 melanoma) | TGI (HOP-62 NSCLC) | TGI (LOX IMVI melanoma) | TGI (RPMI-8226 leukemia) | TGI (HL-60(TB) leukemia)

O=C(Nc1ccccc1)NS(=O)(=O)c1ccc(N2N=C3c4ccccc4CC3C2c2ccccn2)cc1 (configuration not stated)
90.2 µM: TGI (CAKI-1 renal)
76.6 µM: TGI (UACC-257 melanoma)
34.2 µM: TGI (LOX IMVI melanoma)
inactive: GI50 (OVCAR-4 ovarian) > 100 µM | GI50 (MOLT-4 leukemia) 11.6 µM | GI50 (HT29 colon) 37.9 µM | GI50 (UACC-257 melanoma) 26.6 µM | GI50 (HOP-62 NSCLC) 20.4 µM | GI50 (LOX IMVI melanoma) 15.4 µM | GI50 (RPMI-8226 leukemia) 27.1 µM | GI50 (CAKI-1 renal) 26.4 µM
> 100 µM: TGI (OVCAR-4 ovarian) | TGI (MOLT-4 leukemia) | TGI (HT29 colon) | TGI (RPMI-8226 leukemia)
45.5 µM: TGI (HOP-62 NSCLC)

CC[C@H](C)[C@H](NC(=O)Nc1ccccc1)C(=O)N(C)[C@H](C[C@@H](OC(C)=O)c1nc(C(=O)N[C@@H](Cc2ccccc2)C[C@H](C)C(=O)OC)cs1)C(C)C
inactive: GI50 (OVCAR-4 ovarian) 6.06 µM | GI50 (HT29 colon) 3.33 µM | GI50 (UACC-257 melanoma) > 100 µM | GI50 (HOP-62 NSCLC) 3.66 µM | GI50 (LOX IMVI melanoma) 4.76 µM | GI50 (RPMI-8226 leukemia) 2.03 µM | GI50 (CAKI-1 renal) 9.01 µM
> 100 µM: TGI (OVCAR-4 ovarian) | TGI (HT29 colon) | TGI (UACC-257 melanoma) | TGI (HOP-62 NSCLC) | TGI (LOX IMVI melanoma) | TGI (RPMI-8226 leukemia) | TGI (CAKI-1 renal)

C[C@]12CCC3c4ccc(O)cc4CCC3C1Cc1ccc(O)cc12 (some centres not stated)
45.6 µM: TGI (CAKI-1 renal)
18 µM: TGI (RPMI-8226 leukemia)
21.3 µM: TGI (LOX IMVI melanoma)
3.29 µM: TGI (HL-60(TB) leukemia)
20.6 µM: TGI (HT29 colon)
0.478 µM: TGI (MOLT-4 leukemia)
92.7 µM: TGI (OVCAR-4 ovarian)
inactive: GI50 (OVCAR-4 ovarian) 15.3 µM | GI50 (HT29 colon) 6.13 µM | GI50 (UACC-257 melanoma) 14.4 µM | GI50 (LOX IMVI melanoma) 6.53 µM | GI50 (RPMI-8226 leukemia) 3.75 µM | GI50 (HL-60(TB) leukemia) 1.08 µM | GI50 (CAKI-1 renal) 10.8 µM
28.5 µM: TGI (UACC-257 melanoma)
